In patent publication US11655217B2, “Pyrazole MAGL inhibitors” (H. Lundbeck A/S, priority 2017, dated 2023):

How the values were obtained:
MAGL = MAGL (Mus musculus (Mouse), UniProt O35678); experiment: Mouse brain proteomes from inhibitor treated mice (oral gavage, sacrificed 4 h after administration, ABPP analysis); conditions: 5 mg/kg oral gavage
Procedure: (§1) Preparation of Mouse Brain Proteomes from Inhibitor Treated Mice.
(§2) Inhibitors were administered to wild-type C57Bl/6J by oral gavage in a vehicle of polyethylene glycol.

FAAH = FAAH (Mus musculus (Mouse), UniProt O08914); experiment: Mouse brain proteomes from inhibitor treated mice (oral gavage, sacrificed 4 h after administration, ABPP analysis), FAAH; conditions: 5 mg/kg oral gavage
Sequence of FAAH (O08914 whole entry): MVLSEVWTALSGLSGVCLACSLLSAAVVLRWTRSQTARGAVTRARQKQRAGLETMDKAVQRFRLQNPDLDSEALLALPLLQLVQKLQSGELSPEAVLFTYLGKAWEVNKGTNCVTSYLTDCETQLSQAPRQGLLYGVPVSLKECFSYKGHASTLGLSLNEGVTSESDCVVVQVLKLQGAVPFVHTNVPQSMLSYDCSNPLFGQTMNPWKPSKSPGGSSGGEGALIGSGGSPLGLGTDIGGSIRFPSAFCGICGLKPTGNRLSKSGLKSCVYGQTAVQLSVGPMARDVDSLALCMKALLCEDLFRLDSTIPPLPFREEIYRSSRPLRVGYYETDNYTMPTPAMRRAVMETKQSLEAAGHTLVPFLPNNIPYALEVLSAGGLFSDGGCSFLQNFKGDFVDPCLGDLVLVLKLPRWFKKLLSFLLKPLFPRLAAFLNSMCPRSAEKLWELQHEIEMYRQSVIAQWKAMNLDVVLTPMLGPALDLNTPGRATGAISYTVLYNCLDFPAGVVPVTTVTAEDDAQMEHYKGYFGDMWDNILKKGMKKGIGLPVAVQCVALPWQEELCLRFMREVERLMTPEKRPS
Procedure: as §1, §2

Sequence of MAGL (O35678 whole entry): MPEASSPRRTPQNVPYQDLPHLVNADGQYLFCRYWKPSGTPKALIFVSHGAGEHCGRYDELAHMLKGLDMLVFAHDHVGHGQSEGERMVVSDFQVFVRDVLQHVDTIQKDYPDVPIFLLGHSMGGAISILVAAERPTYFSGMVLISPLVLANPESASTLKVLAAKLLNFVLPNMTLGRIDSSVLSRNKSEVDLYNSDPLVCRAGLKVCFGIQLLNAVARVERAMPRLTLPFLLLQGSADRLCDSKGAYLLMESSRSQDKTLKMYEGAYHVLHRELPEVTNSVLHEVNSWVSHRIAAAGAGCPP

Structure (SMILES) | MAGL % inh. 5 mg/kg (mouse) (MAGL) | FAAH % inh. 5 mg/kg (mouse) (FAAH)
O=C(O)c1ccn(C(=O)N2CCN(Cc3ccc(C(F)(F)F)c(N4C5CCC4COC5)c3)CC2)n1 [Example 40, 1-(4-(3-(3-oxa-8-azabicyclo[3.2.1]octan-8-yl)-4-(trifluoromethyl)benzyl)piperazine-1-carbonyl)-1H-pyrazole-3-carboxylic acid] | D (% inhibition is greater than or equal to 0% and less than 25%) | D (% inhibition is greater than or equal to 0% and less than 25%)
O=C(O)c1ccn(C(=O)N2CCC3(CCN(Cc4cc(Cl)ccc4C(F)(F)F)C3)CC2)n1 [Example 43, 1-(2-(5-chloro-2-(trifluoromethyl)benzyl)-2,8-diazaspiro[4.5]decane-8-carbonyl)-1H-pyrazole-3-carboxylic acid] | D (% inhibition is greater than or equal to 0% and less than 25%) | D (% inhibition is greater than or equal to 0% and less than 25%)
O=C(O)c1ccn(C(=O)N2CCN(Cc3ccc(C(F)(F)F)cc3N3CCN4CCC[C@@H]4C3)CC2)n1 [Example 48, (R)-1-(4-(2-(hexahydropyrrolo-[1,2-a]pyrazin-2(1H)-yl)-4-(trifluoromethyl)benzyl)piperazine-1-carbonyl)-1H-pyrazole-3-carboxylic acid] | D (% inhibition is greater than or equal to 0% and less than 25%) | D (% inhibition is greater than or equal to 0% and less than 25%)
O=C(O)c1ccn(C(=O)N2CCN(Cc3cccc(Oc4ccc(F)cc4)c3)CC2)n1 [Example 51, 1-(4-(3-(4-fluorophenoxy)benzyl)piperazine-1-carbonyl)-1H-pyrazole-3-carboxylic acid] | D (% inhibition is greater than or equal to 0% and less than 25%) | D (% inhibition is greater than or equal to 0% and less than 25%)
O=C(O)c1ccn(C(=O)N2C[C@H]3C[C@H](OCc4ccc(Oc5ccc(Cl)cc5)cc4)C[C@H]3C2)n1 [Example 55, 1-(trans-5-((4-(4-chlorophenoxy)benzyl)-oxy)octahydrocyclo-penta-[c]pyrrole-2-carbonyl)-1H-pyrazole-3-carboxylic acid] | D (% inhibition is greater than or equal to 0% and less than 25%) | D (% inhibition is greater than or equal to 0% and less than 25%)
O=C(O)c1ccn(C(=O)N2CCN(Cc3cccc(Oc4cc(C(F)(F)F)ccn4)c3)CC2)n1 [Example 57, 1-(4-(3-((4-(trifluoromethyl)pyridin-2-yl)oxy)benzyl)piperazine-1-carbonyl)-1H-pyrazole-3-carboxylic acid] | D (% inhibition is greater than or equal to 0% and less than 25%) | D (% inhibition is greater than or equal to 0% and less than 25%)
O=C(O)c1ccn(C(=O)N2CCN(Cc3ccc(C(F)(F)F)cc3N3CCCC3)CC2)n1 [Example 83, 1-(4-(2-(pyrrolidin-1-yl)-4-(trifluoromethyl)benzyl)piperazine-1-carbonyl)-1H-pyrazole-3-carboxylic acid] | D (% inhibition is greater than or equal to 0% and less than 25%) | D (% inhibition is greater than or equal to 0% and less than 25%)
O=C(O)c1ccn(C(=O)N2CCC3(CCCN3Cc3cc(Cl)cc(C(F)(F)F)c3)CC2)n1 [Example 86, 1-(1-(3-chloro-5-(trifluoromethyl)benzyl)-1,8-diazaspiro[4.5]decane-8-carbonyl)-1H-pyrazole-3-carboxylic acid] | D (% inhibition is greater than or equal to 0% and less than 25%) | D (% inhibition is greater than or equal to 0% and less than 25%)
O=C(O)c1ccn(C(=O)N2CCC3(CCCN3Cc3cc(N4CCCC4)cc(C(F)(F)F)c3)CC2)n1 [Example 88, 1-(1-(3-(pyrrolidin-1-yl)-5-(trifluoromethyl)benzyl)-1,8-diazaspiro[4.5]decane-8-carbonyl)-1-1H-pyrazole-3-carboxylic acid] | D (% inhibition is greater than or equal to 0% and less than 25%) | D (% inhibition is greater than or equal to 0% and less than 25%)
O=C(O)c1ccn(C(=O)N2CCN(Cc3cccc(C(F)(F)F)c3N3CCCC3)CC2)n1 [Example 90, 1-(4-(2-(pyrrolidin-1-yl)-3-(trifluoromethyl)benzyl)piperazine-1-carbonyl)-1H-pyrazole-3-carboxylic acid] | D (% inhibition is greater than or equal to 0% and less than 25%) | D (% inhibition is greater than or equal to 0% and less than 25%)
O=C(O)c1ccn(C(=O)N2CCN(Cc3ccc(C(F)(F)F)cc3Cl)CC2)n1 [Example 91, 1-(4-(2-chloro-4-(trifluoromethyl)benzyl)piperazine-1-carbonyl)-1H-pyrazole-3-carboxylic acid] | D (% inhibition is greater than or equal to 0% and less than 25%) | D (% inhibition is greater than or equal to 0% and less than 25%)
O=C(O)c1ccn(C(=O)N2CCN(Cc3ccc(C(F)(F)F)cc3N3CC[C@H](F)C3)CC2)n1 [Example 92, (S)-1-(4-(2-(3-fluoropyrrolidin-1-yl)-4-(trifluoromethyl)benzyl)-piperazine-1-carbonyl)-1H-pyrazole-3-carboxylic acid] | D (% inhibition is greater than or equal to 0% and less than 25%) | D (% inhibition is greater than or equal to 0% and less than 25%)
O=C(O)c1ccn(C(=O)N2CCC3(CCCN3Cc3ccc(C(F)(F)F)cc3N3CCCC3)CC2)n1 [Example 93, 1-(1-(2-(pyrrolidin-1-yl)-4-(trifluoromethyl)benzyl)-1,8-diazaspiro[4.5]decane-8-carbonyl)-1H-pyrazole-3-carboxylic acid] | D (% inhibition is greater than or equal to 0% and less than 25%) | D (% inhibition is greater than or equal to 0% and less than 25%)
C[C@@H]1CCCN1c1cc(C(F)(F)F)ccc1CN1CCN(C(=O)n2ccc(C(=O)O)n2)CC1 [Example 95, (R)-1-(4-(2-(2-methylpyrrolidin-1-yl)-4-(trifluoromethyl)benzyl)piperazine-1-carbonyl)-1H-pyrazole-3-carboxylic acid] | D (% inhibition is greater than or equal to 0% and less than 25%) | D (% inhibition is greater than or equal to 0% and less than 25%)
O=C(O)c1ccn(C(=O)N2CCN(Cc3cccc(Oc4ccc(Cl)cc4)c3)CC2)n1 [Example 98, 1-(4-(3-(4-chlorophenoxy)benzyl)piperazine-1-carbonyl)-1H-pyrazole-3-carboxylic acid] | D (% inhibition is greater than or equal to 0% and less than 25%) | D (% inhibition is greater than or equal to 0% and less than 25%)
O=C(O)c1ccn(C(=O)N2CCN(Cc3ccc(C(F)(F)F)cc3N3CCCCC3)CC2)n1 [Example 100, 1-(4-(2-(piperidin-1-yl)-4-(trifluoromethyl)benzyl)piperazine-1-carbonyl)-1H-pyrazole-3-carboxylic acid] | D (% inhibition is greater than or equal to 0% and less than 25%) | D (% inhibition is greater than or equal to 0% and less than 25%)
